From PubChem BioAssay (NCI)
Several values for one entry are separate records, joined by “and”; a condition that tells them apart may be missing. Equal values may be shown once.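 Each compound was tested at five concentrations against cells in 96-well plates for 48 hours. Abbreviation: GI50, concentration required for 50% inhibition of growth. TGI is the concentration that stops growth completely.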

How the values were obtained:
Test in all cases: NCI anticancer screen, dose series, 48 h
[1] = system: UACC-257 melanoma
[2] = system: OVCAR-3 ovarian
[3] = system: COLO 205 colon
[4] = system: A498 renal
[5] = system: HCC-2998 colon
[6] = system: SF-268 CNS
[7] = system: LOX IMVI melanoma
[8] = system: HCT-15 colon
[9] = system: MOLT-4 leukemia
[10] = system: CAKI-1 renal

Row | Structure (SMILES) | GI50 [1] | TGI [1] | GI50 [2] [µM] | TGI [2] | GI50 [3] | TGI [3] | GI50 [4] [µM] | TGI [4] [µM] | GI50 [5] | TGI [5] | GI50 [6] [µM] | TGI [6] | GI50 [7] | TGI [7] [µM] | GI50 [8] | TGI [8] | GI50 [9] [µM] | TGI [9] | GI50 [10] [µM] | TGI [10]
1 | Nc1ccccc1C#C/C=C\C#Cc1ccccc1F | 15.7 µM | 47.5 µM | 2.84 | 14.7 µM | 10.3 µM | 34.1 µM | 7.66 | 21 | 2.25 µM | 5.26 µM | 4.23 | 23.3 µM | 4.07 µM | 14.2 | 5.17 µM | 19.7 µM | 2.13 | > 100 µM | 2.89 | 9.36 µM
2 | CN(C)c1ncnc2c1ccn2C1OC(CO)C(O)C1O (stereo not given) | > 100 µM | > 100 µM | 0.938 | > 34.6 µM | 18.8 µM | > 100 µM | 3.49 | > 100 | 1.89 µM | 18.1 µM | 3.63 | > 100 µM | 0.559 µM | 12.2 | 1.1 µM | > 66.2 µM | 0.278 | 1.95 µM | 1.58 | > 39.8 µM
3 | NCCSC(C[N+](=O)[O-])c1ccccc1Cl (stereo not given) | 1.91 µM | 4.31 µM | 1.88 | 3.5 µM | 2.14 µM | 4.35 µM | 2.3 | 4.69 | 2.1 µM | 4.03 µM | 2.79 | 8.53 µM | 1.69 µM | 3.56 | 2.21 µM | 5.97 µM | 10.2 | > 25.8 µM | 9.88 | 24.3 µM
4 | CC(C)=CCc1cc(C2COc3cc4c(c(O)c3C2=O)C=CC(C)(C)O4)c(O)cc1O (stereo not given) | – | 27.4 µM | – | 27.3 µM | – | 49.9 µM | – | 33.2 | – | 32.7 µM | – | 30.5 µM | – | 43.4 | – | 26.9 µM | – | 20.7 µM | – | 30.9 µM
5 | O=c1[nH]nc(-c2ccccc2)c2c(-c3ccccc3)onc12 | 6.7 µM | > 100 µM | 0.358 | 1.44 µM | 0.505 µM | 9.89 µM | 0.287 | 3.69 | 39.7 µM | > 96.3 µM | 0.969 | > 77.8 µM | 0.877 µM | > 100 | 0.554 µM | > 100 µM | 0.564 | > 65.3 µM | 0.728 | > 100 µM
6 | COc1cc2c3cc1Oc1c(OC)c(OC)cc4c1C(Cc1ccc(cc1)Oc1cc(ccc1O)CC3N(C)CC2)N(C)CC4 (stereo not given) | 13.3 µM and 1.96 µM | 26.7 µM and 4.29 µM | – | 29.1 µM and 62.8 µM | 11 µM and 1.52 µM | 23 µM and 11.3 µM | – | 32.9 | 11.7 µM and 2.71 µM | 25 µM and 11.7 µM | – | 44.6 µM and 24.7 µM | 6.39 µM and 2.56 µM | 19.1 | 8.8 µM and 3.19 µM | 23.2 µM and 14.3 µM | – | 30.8 µM and 36.8 µM | – | 42.9 µM and 31.4 µM
7 | CCc1c2c(nc3ccc(OCc4ccc(B5OC(C)(C)C(C)(C)O5)cc4)cc13)-c1cc3c(c(=O)n1C2)COC(=O)[C@]3(O)CC | 0.0477 µM | 1.26 µM | 0.215 | > 100 µM | 0.126 µM | > 100 µM | 0.0406 | 0.376 | 0.185 µM | > 100 µM | < 0.01 | > 100 µM | < 0.01 µM | 0.355 | 0.331 µM | > 100 µM | < 0.01 | > 100 µM | 0.0162 | 1.22 µM
8 | CN(C)N=Nc1nn(C(=O)Nc2ccc(Cc3ccccc3)cc2)c2ccccc12 | 0.862 µM | > 100 µM | 11.8 | > 100 µM | 0.77 µM | 2.45 µM | > 58.9 | > 100 | 0.802 µM | > 47.7 µM | 17.1 | > 100 µM | 0.0625 µM | > 73.3 | 0.396 µM | > 100 µM | 7.47 | > 100 µM | 1.12 | > 100 µM
9 | C=C1C(=O)O[C@H]2[C@H]1CC/C(CNC(=O)/C=C/c1ccc(Cl)cc1Cl)=C\CC[C@@]1(C)O[C@@H]21 | 1.21 µM | 2.58 µM | 0.434 | 1.57 µM | 1.14 µM | 2.95 µM | 1.47 | 3.87 | 1.56 µM | 2.98 µM | 1.09 | 2.67 µM | 0.516 µM | 1.81 | 1.01 µM | 2.33 µM | 0.275 | 1.58 µM | 0.759 | 2.16 µM
10 | COc1cc(/C=C\c2ccc(Cl)cc2)cc(OC)c1OC | – | 39.2 µM | – | 0.437 µM | – | > 36.3 µM | – | 1.25 | – | 32.7 µM | – | > 100 µM | – | > 100 | – | 14.4 µM | – | 6.87 µM | – | 47.4 µM
11 | O=C(NC1C=Nc2ccccc2NC1=O)c1ccccc1Cl (stereo not given) | – | > 100 µM | – | > 100 µM | – | 52.7 µM | – | > 100 | – | > 100 µM | – | > 100 µM | – | > 100 | – | > 100 µM | – | 54.4 µM | – | > 100 µM
12 | O=C(CN1C(=O)S/C(=C\C(Cl)=C\c2ccccc2)C1=O)NCCCn1ccnc1 | 2.63 µM | 10.2 µM | 1.76 | 3.25 µM | 2.1 µM | 4.82 µM | 1.28 | 5.57 | 1.88 µM | 3.57 µM | 2.52 | 7.65 µM | 1.37 µM | 2.75 | 1.95 µM | 7 µM | 2.1 | 7.57 µM | 1.91 | 4.16 µM
13 | O=c1[nH]cnc2c1ncn2CCCCO | – | > 100 µM | – | > 100 µM | – | > 100 µM | – | > 100 | – | > 100 µM | – | > 100 µM | – | > 100 | – | > 100 µM | – | > 100 µM | – | > 100 µM
14 | COC1C(O)C(C)OC(O[C@@H]2C[C@H]3CC[C@@H]4[C@H](CC[C@]5(C)[C@@H](C6=CC(=O)OC6)CC[C@]45O)[C@@]3(C)[C@H](O)C2)C1O (stereo not given in full) | – | 1.07 µM | – | 0.0838 µM | – | 1.05 µM | – | 0.0871 | – | 2.69 µM | – | 0.171 µM | – | 0.233 | – | 0.327 µM | – | < 0.0273 µM | – | 0.0215 µM
15 | COc1cc(-c2oc3c(OC)c(O)cc(O)c3c(=O)c2OC)ccc1O | – | > 94.2 µM | – | 22.3 µM | – | > 100 µM | – | 17.2 | – | 50.4 µM | – | > 23.3 µM | – | > 55.8 | – | > 100 µM | – | 29.4 µM | – | 51.5 µM
